Reference: patent publication US7473790B2 (Pfizer Inc., priority 2003, dated 2009)
Where two headings read alike, the source gives them in different places.

Biological target: T1, HCV polymerase (Hepatitis C virus genotype 1b, UniProt P26663)
T1 construct: 2.5 pmoles (0.15 μg) HCV polymerase protein in a final volume of 75 μL
Experiment: HCV polymerase primer/template-directed transcription assay (32P-GTP incorporation, filter binding)
Assay type: biochemical
Details: for IC50: 30 minutes at 30° C., concentration giving 50% inhibition of polymerase-directed transcription; for inhibition at 50 µM: @ 50 uM compound, given where IC50 was impractical to calculate, read-out: percent inhibition
Procedure, shortened: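 Recombinant genotype 1b polymerase (30 nM) extended biotin-dG12 primer on poly(rC)300 template with 1 μM GTP plus α-32P-GTP, pH 7.2, 10 mM MgCl2, 30 min at 30° C, 1% DMSO final. Products captured on DE filters and counted. IC50 fitted from triplicate cpm, with a tight-binding correction applied below 200 nM.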

[1] = recombinant HCV polymerase, read-out: IC50

T1 sequence (P26663 2420-3010): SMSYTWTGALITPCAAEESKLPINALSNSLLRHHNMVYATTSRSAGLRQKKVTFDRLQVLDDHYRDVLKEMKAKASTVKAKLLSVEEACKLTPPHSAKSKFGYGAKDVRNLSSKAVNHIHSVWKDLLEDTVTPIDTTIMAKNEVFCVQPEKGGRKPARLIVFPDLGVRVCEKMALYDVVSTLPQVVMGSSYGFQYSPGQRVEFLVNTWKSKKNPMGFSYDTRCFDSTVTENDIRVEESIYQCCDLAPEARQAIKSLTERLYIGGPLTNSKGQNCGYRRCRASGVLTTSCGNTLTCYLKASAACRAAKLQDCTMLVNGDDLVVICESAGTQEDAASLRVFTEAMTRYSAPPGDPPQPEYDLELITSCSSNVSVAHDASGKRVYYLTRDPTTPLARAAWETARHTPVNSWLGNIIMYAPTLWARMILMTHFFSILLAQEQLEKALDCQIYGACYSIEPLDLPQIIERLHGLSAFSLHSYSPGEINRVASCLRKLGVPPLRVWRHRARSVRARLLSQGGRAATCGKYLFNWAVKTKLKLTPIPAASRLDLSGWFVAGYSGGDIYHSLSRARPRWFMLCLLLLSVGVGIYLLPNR

`CC(C)(C#N)c1ccc(CCC2(C3CCCC3)CC(O)=C(Cc3cnc4ncccn34)C(=O)O2)cc1F` (centres unmarked) [A(222), 2-(4-{2-[2-cyclopentyl-4-hydroxy-5-(imidazo[1,2-a]pyrimidin-3-ylmethyl)-6-oxo-3,6-dihydro-2H-pyran-2-yl]ethyl}-2-fluorophenyl)-2-methylpropanenitrile] showed an IC50 [1] of 120 nM.
With `O=C1CC(=O)OC(CSCc2ccco2)(C2CCCC2)C1` (centres unmarked) [I(2), 6-cyclopentyl-6-{[(2-furylmethyl)thio]methyl}dihydro-2H-pyran-2,4(3H)-dione] the inhibition at 50 µM was 22%.
`N#CC1(c2c(F)cc(CCC3(C4CCCC4)CC(=O)CC(=O)O3)cc2F)CC1` (centres unmarked) [A(255), 1-{4-[2-(2-Cyclopentyl-4,6-dioxo-tetrahydro-pyran-2-yl)-ethyl]-2,6-difluoro-phenyl}-cyclopropanecarbonitrile] gave an IC50 [1] of 1900 nM.
Work on `COc1cc(OC)c(CCC2(C3CCCC3)CC(O)=C(Sc3nnc(C)n3CCN3CCOCC3)C(=O)O2)cc1Cl` (centres unmarked) [C(86), 6-[2-(5-chloro-2,4-dimethoxyphenyl)ethyl]-6-cyclopentyl-4-hydroxy-3-{[5-methyl-4-(2-morpholin-4-ylethyl)-4H-1,2,4-triazol-3-yl]thio}-5,6-dihydro-2H-pyran-2-one] yielded an IC50 [1] of 48 nM.
`Cc1cnc2nc(CC3C(=O)CC(CCc4ccc(C(C)(C)C#N)c(F)c4)(C4CCCC4)OC3=O)nn2c1` (racemic) [A(108), 2-(4-{2-[2-Cyclopentyl-5-(6-methyl-[1,2,4]triazolo[1,5-a]pyrimidin-2-ylmethyl)-4,6-dioxo-tetrahydro-pyran-2-yl]-ethyl}-2-fluoro-phenyl)-2-methyl-propionitrile] gave an IC50 [1] of 3 nM.
Compound `CC(C)(C#N)c1ccc(CCC2(C3CCCC3)CC(=O)CC(=O)O2)cc1Cl` (centres unmarked) [A(147), 2-{2-Chloro-4-[2-(2-cyclopentyl-4,6-dioxo-tetrahydro-pyran-2-yl)-ethyl]-phenyl}-2-methyl-propionitrile] has an IC50 [1] of 1400 nM.
Work on `Cc1cc(C)n2nc(CC3=C(O)CC(CCc4ccc(C(C)(C)O)c(F)c4)(C4CCCC4)OC3=O)nc2n1` (single isomer, unassigned; enantiomer a) [A(218), 6-cyclopentyl-3-[(5,7-dimethyl[1,2,4]triazolo[1,5-a]pyrimidin-2-yl)methyl]-6-{2-[3-fluoro-4-(1-hydroxy-1-methylethyl)phenyl]ethyl}-4-hydroxy-5,6-dihydro-2H-pyran-2-one (enantiomer A)] yielded an IC50 [1] of 61 nM.
In the case of `Cc1cc(C#CCCC2(C3CCCC3)CC(=O)CC(=O)O2)c(C)cc1O` (centres unmarked) [F(1), 6-Cyclopentyl-6-[4-(4-hydroxy-2,5-dimethyl-phenyl)-but-3-ynyl]-dihydro-pyran-2,4-dione], the IC50 [1] is reported as 7200 nM.
`COc1cc(OC)c(CCC2(C3CCCC3)CC(O)=C(Cc3nc4cc(OC)c(OC)cc4c(=O)[nH]3)C(=O)O2)cc1Cl` (centres unmarked) [B(63), 2-({6-[2-(5-Chloro-2,4-dimethoxyphenyl)ethyl]-6-cyclopentyl-4-hydroxy-2-oxo-5,6-dihydro-2H-pyran-3-yl}methyl)-6,7-dimethoxyquinazolin-4(3H)-one] gave an IC50 [1] of 16 nM.
In the case of `CC(C)(C)C1(c2ccc(CCC3(C4CCCC4)CC(=O)CC(=O)O3)cc2)OCCO1` (centres unmarked) [A(34), 6-{2-[4-(2-tert-Butyl-[1,3]dioxolan-2-yl)-phenyl]-ethyl}-6-cyclopentyl-dihydro-pyran-2,4-dione], the IC50 [1] is reported as 10000 nM.
In the case of `Cc1cnc2nc(CC3=C(O)CC(CCc4ccc(C5(C#N)CC5)c(Cl)c4)(C4CCCC4)OC3=O)nn2c1` (centres unmarked) [B(125), 1-(2-Chloro-4-{2-[2-cyclopentyl-4-hydroxy-5-(6-methyl-[1,2,4]triazolo[1,5-a]pyrimidin-2-ylmethyl)-6-oxo-3,6-dihydro-2H-pyran-2-yl]-ethyl}-phenyl)-cyclopropanecarbonitrile], the IC50 [1] is reported as 4 nM.
`O=C(O)CC(O)(CCNC(=O)CCc1ccco1)C1CCCC1` (centres unmarked) [H(5), 3-Cyclopentyl-5-(3-furan-2-yl-propionylamino)-3-hydroxy-pentanoic acid] gave an inhibition at 50 µM of 7%.
`CC(C)Oc1ccc(CCC2(C3CCCC3)CC(O)=C(Sc3nc4cc(Cl)ccc4[nH]3)C(=O)O2)cc1Cl` (centres unmarked) [C(26), 3-(5-Chloro-1H-benzoimidazol-2-ylsulfanyl)-6-[2-(3-chloro-4-isopropoxy-phenyl)-ethyl]-6-cyclopentyl-4-hydroxy-5,6-dihydro-pyran-2-one] gave an IC50 [1] of 130 nM.
`CCOc1ccc(CCC2(C3CCCC3)CC(O)=C(Cc3nc4nc(C)cc(C)n4n3)C(=O)O2)cc1CC` (centres unmarked) [B(99), 6-Cyclopentyl-3-(5,7-dimethyl-[1,2,4]triazolo[1,5-a]pyrimidin-2-ylmethyl)-6-[2-(4-ethoxy-3-ethyl-phenyl)-ethyl]-4-hydroxy-5,6-dihydro-pyran-2-one] gave an IC50 [1] of 350 nM.
With `Cc1cc(C)n2nc(CC3=C(O)CC(CCc4ccc(C5(C#N)CC5)c(Cl)c4)(C4CCCC4)OC3=O)nc2n1` (racemic) [A(200), 1-(2-Chloro-4-{2-[2-cyclopentyl-5-(5,7-dimethyl-[1,2,4]triazolo[1,5-a]pyrimidin-2-ylmethyl)-4-hydroxy-6-oxo-3,6-dihydro-2H-pyran-2-yl]-ethyl}-phenyl)-cyclopropanecarbonitrile] the IC50 [1] was 5 nM.
`N#CCC(=O)c1ccc(C#CC2(C3CCCC3)CC(=O)CC(=O)O2)cc1` (centres unmarked) [E(1), 3-[4-(2-Cyclopentyl-4,6-dioxo-tetrahydro-pyran-2-ylethynyl)-phenyl]-3-oxo-propionitrile] showed an IC50 [1] of 22000 nM.
For `CCc1cc(CCC2(C3CCCC3)CC(O)=C(Cc3nc4ncc(C)cn4n3)C(=O)O2)ccc1O` (centres unmarked) [A(126), 6-Cyclopentyl-6-[2-(3-ethyl-4-hydroxy-phenyl)-ethyl]-4-hydroxy-3-(6-methyl-[1,2,4]triazolo[1,5-a]pyrimidin-2-ylmethyl)-5,6-dihydro-pyran-2-one], the IC50 [1] was 9 nM.
In the case of `O=C1CC(=O)OC(CCCCC2CCCCC2)(C2CCCC2)C1` (centres unmarked) [A(57), 6-(4-Cyclohexyl-butyl)-6-cyclopentyl-dihydro-pyran-2,4-dione], the IC50 [1] is reported as 6300 nM.
`Cc1nnc(SC2=C(O)CC(CCc3ccc(OC(C)C)c(F)c3)(C3CCCC3)OC2=O)s1` (centres unmarked) [C(09), 6-Cyclopentyl-6-[2-(3-fluoro-4-isopropoxy-phenyl)-ethyl]-4-hydroxy-3-(5-methyl-[1,3,4]thiadiazol-2-ylsulfanyl)-5,6-dihydro-pyran-2-one] showed an IC50 [1] of 326 nM.
`CC(C)Oc1ccc(CCC2(C3CCCC3)CC(O)=C(Sc3cccc4cccnc34)C(=O)O2)cc1F` (centres unmarked) [C(01), 6-Cyclopentyl-6-[2-(3-fluoro-4-isopropoxy-phenyl)-ethyl]-4-hydroxy-3-(quinolin-8-ylsulfanyl)-5,6-dihydro-pyran-2-one] gave an IC50 [1] of 337 nM.
Work on `CCc1cc(CCC2(C3CCCC3)CC(=O)CC(=O)O2)ccc1OCCO` (centres unmarked) [A(128), 6-Cyclopentyl-6-{2-[3-ethyl-4-(2-hydroxy-ethoxy)-phenyl]-ethyl}-dihydro-pyran-2,4-dione] yielded an IC50 [1] of 490 nM.
In the case of `CC(C)(C#N)c1ccc(CCC2(C3CCCC3)CC(=O)CC(=O)O2)cc1F` (centres unmarked) [A(81), 2-{4-[2-(2-Cyclopentyl-4,6-dioxo-tetrahydro-pyran-2-yl)-ethyl]-2-fluoro-phenyl}-2-methyl-propionitrile], the IC50 (IC50, recombinant HCV polymerase) is reported as 140 nM.
`Cc1csc2nc(CC3=C(O)CC(CCc4ccc(OCC5CC5)c(Cl)c4)(C4CCCC4)OC3=O)cc(=O)n12` (centres unmarked) [B(58), 7-[(6-{2-[3-Chloro-4-(cyclopropylmethoxy)phenyl]ethyl}-6-cyclopentyl-4-hydroxy-2-oxo-5,6-dihydro-2H-pyran-3-yl)methyl]-3-methyl-5H-[1,3]thiazolo[3,2-a]pyrimidin-5-one] gave an IC50 [1] of 6200 nM.
